From patent US6461997B1, “Triazole sulfones having herbicidal activity” (Monsanto Technology LLC, priority 1999, dated 2002)

Experiments:
[1] = test system: LOLMG (annual ryegrass); experiment: Pre-emergence herbicidal activity, cool season; format: in vivo, Lolium multiflorum; conditions: GR80 = lowest tested rate (300, 100, 30, 10 g/ha) with 80% or greater inhibition; approx. 14 days after treating; 18/13° C.
In short: (§1)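 Seeds sown in sterilised fertilised topsoil received surface-applied compound in 50:50 acetone/water, typically at 300, 100, 30 and 10 g/ha, then greenhouse-grown at 30/21° C (warm-season species) or 18/13° C (cool-season species). Percent inhibition versus untreated plants was scored at about 14 days, giving GR80; an asterisk marks activity short of 80% at the top rate.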

[2] = test system: CONAR (field bindweed); experiment: Pre-emergence herbicidal activity, warm season; format: in vivo, Convolvulus arvensis; conditions: GR80 = lowest tested rate (300, 100, 30, 10 g/ha) with 80% or greater inhibition; approx. 14 days after treating; 30/21° C.
In short: as §1

[3] = test system: KCHSC (kochia); experiment: Pre-emergence herbicidal activity, cool season; format: in vivo, Kochia scoparia; conditions: lowest tested rate with 80% or greater inhibition; rates 300, 100, 30, 10 g/ha; about 14 days
Protocol: Tables 5 to 8 summarize results of tests conducted as described below to determine the pre-emergence herbicidal activity, in the form of a GR80 value, of illustrative compounds of this invention. […] Compounds of the invention were typically applied at rates of 300, 100, 30, and 10 g/ha. Where herbicidal activity was evident but 80% inhibition was not achieved at the highest rate tested, an asterisk (*) is shown in the following tables.
The pre-emergence tests were conducted by the following procedure. Topsoil was sieved to pass through a 1.27 cm screen. Fertilizer was added to the topsoil and the mixture was then sterilized by heating. The topsoil mixture was placed in a pot and compacted to a depth of 1.0 to 1.25 cm from the top of the pot. Seeds of each of several monocotyledonous and dicotyledonous annual plant species were placed on top of the soil. Additional soil was subsequently placed over the seeds to level-fill the pot. A known amount of each test compound dissolved or suspended in an appropriate organic solvent was diluted with a 50:50 mix of acetone and water and applied to the surface of the soil. After treatment the plants were placed in a greenhouse where they received 0.64 cm of overhead irrigation. All subsequent watering consisted of a light overhead mist and/or subirrigation as needed for germination and growth. Tables 5 and 6 below relate to warm season plant species which were placed after pre-emergence treatment in a greenhouse with a 30/21° C. day/night temperature regime. Tables 7 and 8 below relates to cool season plant species placed after pre-emergence treatment in a greenhouse or growth chamber with an 18/13° C. day/night temperature regime.
(§2) Approximately 14 days after planting and treating, the plants were observed and herbicidal efficacy recorded as percent inhibition by comparison with untreated plants.
The plant species usually regarded as weeds which were utilized in the tests are identified in the tables below according to the following legend, in which “d” indicates a dicotyledonous species and “m” a monocotyledonous species. All monocotyledonous species included in the tests herein are grasses.

[4] = test system: PANMI (wild proso millet); experiment: Pre-emergence herbicidal activity, warm season; format: in vivo, Panicum miliaceum; conditions: GR80 = lowest tested rate (300, 100, 30, 10 g/ha) with 80% or greater inhibition; approx. 14 days after treating; 30/21° C.
In short: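 Each pot received seeds on sterilized fertilized topsoil, a soil cover, and a surface spray of compound (300–10 g/ha, acetone/water 50:50). Plants grew about 14 days at 30/21 °C (PANMI, DIGSA) or 18/13 °C (ALOMY, POLCO) before inhibition was rated against untreated pots to give GR80.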

[5] = test system: DATST (jimsonweed); experiment: Pre-emergence herbicidal activity, warm season; format: in vivo, Datura stramonium; conditions: GR80 = lowest tested rate (300, 100, 30, 10 g/ha) with 80% or greater inhibition; approx. 14 days after treating; 30/21° C.
In short: as §1

[6] = test system: IPOSS (annual morningglory); experiment: Pre-plant incorporated (PPI) herbicidal activity, warm season; format: in vivo, Ipomoea spp.; conditions: PPI application
Protocol: (§3) In another set of tests, the pre-plant incorporated (PPI) activity of compounds of this invention was evaluated on the same species as for the pre-emergence tests described above. In the PPI tests the following procedure, designed to simulate PPI application, was used.
(§4) A pre-prepared topsoil mixture (described above) was placed in a pot and compacted to a depth of 1.0 to 1.25 cm from the top of the pot. Seeds of each of several monocotyledonous and dicotyledonous annual plant species were placed on top of the soil. A sufficient quantity of soil to cover the seeds and level fill the pot was weighed into an open container. A known amount of the test compound was dissolved or suspended in an organic solvent and applied by spraying to this cover soil. The cover soil was thoroughly mixed to distribute the test compound throughout the cover soil, and was then applied as a cover layer over the seeds. Untreated soil was used as a cover layer for control pots. After treatment the plants were placed in a greenhouse where they received 0.64 cm of overhead irrigation. All subsequent watering consisted of a light overhead mist and/or subirrigation as needed for germination and growth. Tables 9 and 10 below relate to warm season plant species which were placed after pre-emergence treatment in a greenhouse with a 30/21° C. day/night temperature regime. Tables 11 and 12 below relates to cool season plant species placed after pre-emergence treatment in a greenhouse or growth chamber with an 18/13° C. day/night temperature regime. Only the compounds of Examples 1, 6, 8, 11, 13 and 15-20 were included in PPI tests.
as §2

[7] = test system: AGRRE (quackgrass (seedling)); experiment: Pre-emergence herbicidal activity, cool season; format: in vivo, Elymus repens; conditions: GR80 = lowest tested rate (300, 100, 30, 10 g/ha) with 80% or greater inhibition; approx. 14 days after treating; 18/13° C.
In short: as §1

[8] = test system: BROTE (downy brome); experiment: Pre-emergence herbicidal activity, cool season; format: in vivo, Bromus tectorum; conditions: GR80 = lowest tested rate (300, 100, 30, 10 g/ha) with 80% or greater inhibition; approx. 14 days after treating; 18/13° C.
In short: as §1

[9] = test system: barley (HORVX); experiment: Selectivity test, PPI, cool season crop; format: in vivo, Hordeunm vulgare; conditions: PPI application
Protocol: as §4, §2
Additional pre-emergence and PPI tests were conducted by the procedures described above, on warm and cool season weed species in the presence of crop species, to assess herbicidal selectivity. Crop species included in warm season tests were corn (Zea mays, ZEAMX), rice (Oryza sativa, ORYSA) and soybean (Glycine max, GLYMX). Crop species included in cool season tests were wheat (Triticum aestivum, TRZAW), barley (Hordeunm vulgare, HORVX) and oilseed rape (Brassica napus, BRSNS).
Tables 15 and 16 relate to pre-emergence and PPI tests respectively on warm season species. Table 17 relates to pre-emergence tests on cool season species.

[10] = test system: AVEFA (wild oat); experiment: Pre-emergence herbicidal activity, cool season; format: in vivo, Avena fatua; conditions: GR80 = lowest tested rate (300, 100, 30, 10 g/ha) with 80% or greater inhibition; approx. 14 days after treating; 18/13° C.
In short: as §1

[11] = test system: KCHSC (kochia); experiment: Pre-plant incorporated (PPI) herbicidal activity, cool season; format: in vivo, Kochia scoparia
Protocol: as §3, §4, §2

[12] = test system: CONAR (field bindweed); experiment: Pre-plant incorporated (PPI) herbicidal activity, warm season; format: in vivo, Convolvulus arvensis; conditions: GR80 = lowest tested rate with 80% or greater inhibition, approx. 14 days after treating, 30/21° C.
Protocol: as §3, §4, §2

[13] = test system: CIRAR (canada thistle (seedling)); experiment: as above; format: in vivo, Cirsium arvense; conditions: GR80 = lowest tested rate with 80% or greater inhibition, approx. 14 days after treating, 30/21° C.
Protocol: as §3, §4, §2

[14] = test system: ABUTH (velvetleaf); experiment: Pre-emergence herbicidal activity, warm season; format: in vivo, Abutilon theophrasti; conditions: GR80 = lowest tested rate (300, 100, 30, 10 g/ha) with 80% or greater inhibition; approx. 14 days after treating; 30/21° C.
In short: as §1

[15] = test system: POROL (common purslane); experiment: Pre-plant incorporated (PPI) herbicidal activity, warm season; format: in vivo, Portulaca oleracea; conditions: GR80 = lowest tested rate with 80% or greater inhibition, approx. 14 days after treating, 30/21° C.
Protocol: as §3, §4, §2

| Compound | Pre-emergence activity (GR80) LOLMG [1] | Pre-emergence activity (GR80) CONAR [2] | Pre-emergence activity GR80, KCHSC [3] [g/ha] | Pre-emergence activity (GR80) PANMI [4] [g/ha] | Pre-emergence activity (GR80) DATST [5] | Percent inhibition IPOSS ([6]; 100 g/ha) [%] | Percent inhibition IPOSS ([6]; 300 g/ha) [%] | Percent inhibition IPOSS ([6]; 900 g/ha) [%] | Pre-emergence activity (GR80) AGRRE [7] | Pre-emergence activity (GR80) BROTE [8] | Percent inhibition HORVX ([9]; 30 g/ha) [%] | Percent inhibition HORVX ([9]; 100 g/ha) [%] | Percent inhibition HORVX ([9]; 300 g/ha) [%] | Percent inhibition HORVX ([9]; 900 g/ha) [%] | Pre-emergence activity (GR80) AVEFA [10] | Percent inhibition IPOSS ([6]; 30 g/ha) [%] | PPI activity (GR80) CONAR [12] [g/ha] | PPI activity (GR80) CIRAR [13] [g/ha] | PPI activity (GR80) POROL [15] [g/ha] | other results |
| --- | --- | --- | --- | --- | --- | --- | --- | --- | --- | --- | --- | --- | --- | --- | --- | --- | --- | --- | --- | --- |
| CCN(CC)C(=O)n1cnc(S(=O)(=O)C(F)(F)F)n1 [Example 2] | 300 g/ha | 300 g/ha | 300 | 30 | 300 g/ha | 20 | 100 | 95 | 100 g/ha | 300 g/ha | 0 | 30 | 20 | 100 |  |  |  |  |  |  |
| CCN(CC)C(=O)n1cnc(S(=O)(=O)C(F)(F)SC)n1 [Example 9] | * (activity observed, at least at highest rate, but <80% inhibition) | 300 g/ha | 300 | 100 | 300 g/ha | 100 | 40 | 100 |  | 100 g/ha | 0 | 0 | 10 | 40 | 300 g/ha | 0 |  |  |  |  |
| CCN(CC)C(=O)n1cnc(S(=O)(=O)C(F)(F)C(F)F)n1 [Example 16] | 300 g/ha | 300 g/ha |  | 30 | 300 g/ha | 0 | 0 | 50 | * (activity observed, at least at highest rate, but <80% inhibition) |  | 0 | 10 | 25 | 20 | 300 g/ha | 0 | 100 | 30 | 10 | PPI activity GR80, KCHSC ([11]; pre-plant incorporated, lowest tested rate with 80% or greater inhibition, about 14 days): 30 g/ha; Percent inhibition IPOSS ([6]; 10 g/ha): 0%; Percent inhibition HORVX ([9]; 10 g/ha): 0%; Pre-emergence activity (GR80) ABUTH [14]: 300 g/ha |
| C=C(Br)CC(F)(F)S(=O)(=O)c1ncn(C(=O)N(CC)CC)n1 [Example 19] | 300 g/ha | * (activity observed, at least at highest rate, but <80% inhibition) |  | 100 | * (activity observed, at least at highest rate, but <80% inhibition) |  |  |  | * (activity observed, at least at highest rate, but <80% inhibition) | * (activity observed, at least at highest rate, but <80% inhibition) |  |  |  |  | * (activity observed, at least at highest rate, but <80% inhibition) |  | 300 | 300 | 100 | inhibition at 10 g/ha ([11]; Bassia scoparia, weed, PPI application, 10 g/ha, read-out: Percent inhibition KCHSC): 0%; inhibition at 30 g/ha ([11]; Bassia scoparia, weed, PPI application, 30 g/ha, read-out: Percent inhibition KCHSC): 20%; inhibition at 100 g/ha ([11]; Bassia scoparia, weed, PPI application, 100 g/ha, read-out: Percent inhibition KCHSC): 80%; inhibition at 300 g/ha ([11]; Bassia scoparia, weed, PPI application, 300 g/ha, read-out: Percent inhibition KCHSC): 80%; inhibition at 900 g/ha ([11]; Bassia scoparia, weed, PPI application, 900 g/ha, read-out: Percent inhibition KCHSC): 100%; inhibition at 10 g/ha ([9]; Hordeum vulgare, 10 g/ha, read-out: Percent inhibition HORVX): 0%; inhibition at 30 g/ha ([9]; Hordeum vulgare, 30 g/ha, read-out: Percent inhibition HORVX): 0%; inhibition at 100 g/ha ([9]; Hordeum vulgare, 100 g/ha, read-out: Percent inhibition HORVX): 20%; inhibition at 300 g/ha ([9]; Hordeum vulgare, 300 g/ha, read-out: Percent inhibition HORVX): 20%; inhibition at 900 g/ha ([9]; Hordeum vulgare, 900 g/ha, read-out: Percent inhibition HORVX): 45% |
| CCN(CC)C(=O)n1cnc(S(=O)(=O)C(F)(F)Cl)n1 [Example 3] |  | 300 g/ha | 300 | 30 | 100 g/ha | 50 | 100 | 80 |  | * (activity observed, at least at highest rate, but <80% inhibition) | 0 | 0 | 10 | 80 |  | 0 |  |  |  |  |
| CCN(CC)C(=O)n1cnc(S(=O)(=O)C(F)(F)C(F)(F)Br)n1 [Example 4] | 300 g/ha |  | 100 | 100 | 300 g/ha | 80 | 60 | 100 | 30 g/ha | 300 g/ha | 0 | 0 | 50 | 90 | 30 g/ha | 0 |  |  |  |  |
